Test results reported in ChEMBL document CHEMBL1759876, “PNA containing isocytidine nucleobase: synthesis and recognition of double helical RNA” (Bioorg Med Chem Lett, 2011).

Key:
Type in all cases: nucleic-acid assay
Hairpin ribozyme RNA [1] = assay: Binding affinity to double helical RNA hairpin HRP1 in sodium acetate buffer at pH 5.5
Hairpin ribozyme RNA [2] = assay: Binding affinity to double helical RNA hairpin HRP3 in sodium acetate buffer at pH 5.5
Hairpin ribozyme RNA [3] = assay: Binding affinity to double helical RNA hairpin HRP4 in sodium acetate buffer at pH 5.5
Hairpin ribozyme RNA [4] = assay: Binding affinity to double helical RNA hairpin HRP2 in sodium acetate buffer at pH 5.5

Ka (Hairpin ribozyme RNA [1]) [×10⁶ /M] | Ka (Hairpin ribozyme RNA [2]) [×10⁶ /M] | Ka (Hairpin ribozyme RNA [3]) [×10⁶ /M] | Ka (Hairpin ribozyme RNA [4]) [×10⁶ /M] | Structure (SMILES)
0.51 | 1.01 | 0.77 | 0.82 | Cc1cn(CC(=O)N(CCNC(=O)CN(CCNC(=O)CN(CCNC(=O)CN(CCNC(=O)[C@@H](N)CCCCN)C(=O)Cn2ccc(N)nc2=O)C(=O)Cn2cc(C)c(=O)[nH]c2=O)C(=O)Cn2ccc(N)nc2=O)CC(=O)NCCN(CC(=O)NCCN(CC(N)=O)C(=O)Cn2ccc(N)nc2=O)C(=O)Cn2cc(C)c(=O)[nH]c2=O)c(N)nc1=O
1.5 | 0.2 | 0.09 | 0.4 | Cc1cn(CC(=O)N(CCNC(=O)CN(CCNC(=O)CN(CCNC(=O)CN(CCNC(=O)CN(CCNC(=O)[C@@H](N)CCCCN)C(=O)Cn2ccc(N)nc2=O)C(=O)Cn2cc(C)c(=O)[nH]c2=O)C(=O)Cn2ccc(N)nc2=O)C(=O)Cn2cnc3nc(N)[nH]c(=O)c32)CC(=O)NCCN(CC(N)=O)C(=O)Cn2ccc(N)nc2=O)c(=O)[nH]c1=O
84 | 0.5 | 0.2 | 0.4 | Cc1cn(CC(=O)N(CCNC(=O)CN(CCNC(=O)CN(CCNC(=O)CN(CCNC(=O)CN(CCNC(=O)[C@@H](N)CCCCN)C(=O)Cn2ccc(N)nc2=O)C(=O)Cn2cc(C)c(=O)[nH]c2=O)C(=O)Cn2ccc(N)nc2=O)C(=O)Cn2ccc(N)nc2=O)CC(=O)NCCN(CC(N)=O)C(=O)Cn2ccc(N)nc2=O)c(=O)[nH]c1=O
6 | 0.7 | 0.05 | 1.6 | Cc1cn(CC(=O)N(CCNC(=O)CN(CCNC(=O)CN(CCNC(=O)CN(CCNC(=O)CN(CCNC(=O)[C@@H](N)CCCCN)C(=O)Cn2ccc(N)nc2=O)C(=O)Cn2cc(C)c(=O)[nH]c2=O)C(=O)Cn2ccc(N)nc2=O)C(=O)Cn2cnc3ncnc(N)c32)CC(=O)NCCN(CC(N)=O)C(=O)Cn2ccc(N)nc2=O)c(=O)[nH]c1=O
2.7 | 0.5 | 0.02 | 47 | Cc1cn(CC(=O)N(CCNC(=O)CN(CCNC(=O)CN(CCNC(=O)CN(CCNC(=O)CN(CCNC(=O)[C@@H](N)CCCCN)C(=O)Cn2ccc(N)nc2=O)C(=O)Cn2cc(C)c(=O)[nH]c2=O)C(=O)Cn2ccc(N)nc2=O)C(=O)Cn2cc(C)c(=O)[nH]c2=O)CC(=O)NCCN(CC(N)=O)C(=O)Cn2ccc(N)nc2=O)c(=O)[nH]c1=O
